Experimental data reported in US5283245A, “Heterocyclic thiazole derivatives and pharmaceutical compositions comprising said derivatives” (Imperial Chemical Industries PLC, priority 1989, dated 1994).

Tests used:
5-LO [1] = target: T1, 5-LO (Homo sapiens, UniProt P09917); assay: heparinised human blood challenged with calcium ionophore A23187, LTB4 radioimmunoassay (test b); format: cell-based; settings: A23187 challenge
T1 construct: incubating a test compound with heparinised human blood; endogenous in cells; host or cells: heparinised whole human blood (leukocytes, by own knowledge)
T1 sequence (P09917 1-674): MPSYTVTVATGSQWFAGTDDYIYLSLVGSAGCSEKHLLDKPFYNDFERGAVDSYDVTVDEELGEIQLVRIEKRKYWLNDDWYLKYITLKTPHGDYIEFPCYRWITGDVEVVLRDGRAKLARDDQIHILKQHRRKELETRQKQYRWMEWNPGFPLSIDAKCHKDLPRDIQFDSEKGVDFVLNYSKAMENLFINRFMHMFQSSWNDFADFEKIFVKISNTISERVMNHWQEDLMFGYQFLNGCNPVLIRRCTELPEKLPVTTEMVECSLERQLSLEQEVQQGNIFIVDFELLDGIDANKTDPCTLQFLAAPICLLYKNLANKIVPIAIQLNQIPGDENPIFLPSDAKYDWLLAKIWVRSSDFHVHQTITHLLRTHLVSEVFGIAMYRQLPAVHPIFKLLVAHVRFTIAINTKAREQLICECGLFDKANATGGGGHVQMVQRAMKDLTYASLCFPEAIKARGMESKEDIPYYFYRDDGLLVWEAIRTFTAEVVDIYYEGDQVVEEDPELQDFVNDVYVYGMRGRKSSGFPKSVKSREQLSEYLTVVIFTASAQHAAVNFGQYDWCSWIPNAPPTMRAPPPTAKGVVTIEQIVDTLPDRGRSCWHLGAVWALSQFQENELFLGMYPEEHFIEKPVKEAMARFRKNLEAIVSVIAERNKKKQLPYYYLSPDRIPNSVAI
Method: (§1) b) An in vitro assay system involving incubating a test compound with heparinised human blood, prior to challenge with the calcium ionophore A23187 and then indirectly measuring the inhibitory effects on 5-LO by assaying the amount of LTB4 using the specific radioimmunoassay described by Carey and Forder (F. Carey and R. A. Forder, Brit. J. Pharmacol. 1985, 84, 34P) which involves the use of a protein-LTB4 conjugate produced using the procedure of Young et alia (Prostaglandins, 1983, 26(4),605-613). The effects of a test compound on the enzyme cyclooxygenase (which is involved in the alternative metabolic pathway for arachidonic acid and gives rise to prostaglandins, thromboxanes and related metabolites) may be measured at the same time using the specific radioimmunoassay for thromboxane B2 (TxB2) described by Carey and Forder (see above). This test provides an indication of the effects of a test compound against 5-LO and also cyclooxygenase in the presence of blood cells and proteins. It permits the selectivity of the inhibitory effect on 5-LO or cyclooxygenase to be assessed.

5-LO [2] = target: T2, 5-LO (Rattus norvegicus, UniProt P12527); assay: ex vivo assay: administration of compound, blood collection, A23187 challenge, LTB4 radioimmunoassay (test c); format: in vivo; settings: oral administration
T2 construct: blood collection, heparinisation, challenge with A23187 and radioimmunoassay of LTB4 and TxB2; endogenous in cells
T2 sequence (P12527 1-673): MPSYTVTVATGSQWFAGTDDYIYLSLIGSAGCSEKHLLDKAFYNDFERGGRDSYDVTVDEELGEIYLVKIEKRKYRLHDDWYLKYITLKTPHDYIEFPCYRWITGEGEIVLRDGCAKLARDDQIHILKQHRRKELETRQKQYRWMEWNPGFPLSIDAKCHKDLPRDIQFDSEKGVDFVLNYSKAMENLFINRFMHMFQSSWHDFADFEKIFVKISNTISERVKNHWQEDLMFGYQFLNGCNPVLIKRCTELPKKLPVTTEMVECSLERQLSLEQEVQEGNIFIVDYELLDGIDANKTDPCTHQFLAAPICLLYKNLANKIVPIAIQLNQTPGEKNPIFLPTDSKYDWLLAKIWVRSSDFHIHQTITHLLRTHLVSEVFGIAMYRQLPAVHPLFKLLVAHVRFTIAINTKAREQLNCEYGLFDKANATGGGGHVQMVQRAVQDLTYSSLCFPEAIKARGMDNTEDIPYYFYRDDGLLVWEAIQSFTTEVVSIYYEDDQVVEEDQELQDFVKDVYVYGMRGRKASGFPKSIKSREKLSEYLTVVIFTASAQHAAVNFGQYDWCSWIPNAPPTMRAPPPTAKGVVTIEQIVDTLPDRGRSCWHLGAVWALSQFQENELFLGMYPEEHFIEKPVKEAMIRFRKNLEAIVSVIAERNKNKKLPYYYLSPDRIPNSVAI

cyclooxygenase = target: T3, cyclooxygenase (Homo sapiens, UniProt P23219); assay: heparinised human blood challenged with calcium ionophore A23187, TxB2 radioimmunoassay (test b); format: cell-based; settings: A23187 challenge
T3 construct: incubating a test compound with heparinised human blood; endogenous in cells; host or cells: heparinised whole human blood (platelets, by own knowledge)
Method: as §1

T3 sequence (P23219 24-599): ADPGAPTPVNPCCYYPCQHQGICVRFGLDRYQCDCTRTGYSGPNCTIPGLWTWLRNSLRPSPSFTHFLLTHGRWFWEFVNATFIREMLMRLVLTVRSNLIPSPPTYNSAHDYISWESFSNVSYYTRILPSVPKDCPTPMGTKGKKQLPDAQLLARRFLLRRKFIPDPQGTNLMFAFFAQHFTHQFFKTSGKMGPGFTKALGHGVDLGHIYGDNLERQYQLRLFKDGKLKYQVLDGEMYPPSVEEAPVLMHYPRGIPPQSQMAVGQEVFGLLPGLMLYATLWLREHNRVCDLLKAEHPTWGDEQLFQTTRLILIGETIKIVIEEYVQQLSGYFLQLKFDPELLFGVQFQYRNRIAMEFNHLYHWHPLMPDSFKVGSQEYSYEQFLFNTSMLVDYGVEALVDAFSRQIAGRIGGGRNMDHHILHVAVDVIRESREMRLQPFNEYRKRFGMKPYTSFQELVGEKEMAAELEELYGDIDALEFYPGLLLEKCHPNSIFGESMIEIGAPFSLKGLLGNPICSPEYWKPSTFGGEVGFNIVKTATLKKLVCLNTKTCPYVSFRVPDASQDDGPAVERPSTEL

- IC50 (5-LO [1]): 700 nM
- ED50 (5-LO [2]): 50 mg/kg
- IC50 (cyclooxygenase): > 40000 nM
Compound: CCC(OC)(c1cccc(OCC#Cc2ccccn2)c1)c1nccs1 (stereo not drawn) [2-[1-[3-(3-(2-pyridyl)prop-2-yn-1-yloxy)phenyl]-1-methoxypropyl]thiazole]
